Test results taken from patent US20250275951A1, “DRUGS TARGETING INFLAMMATION FOR THE TREATMENT OF OSTEOARTHRITIS AND OTHER INFLAMMATORY DISEASES” (The Board of Trustees of the Leland Stanford Junior …, priority 2020, published 2025).
Values belong to the compound of their own block, whether it stands above or below them.

How the values were obtained:
[1] = in vivo; cited from earlier work
DMM mouse model for OA = test: Cartilage degeneration scoring of safranin-O stained joint sections in DMM mouse model for OA; format: in vivo
Protocol: Histologic outcomes: 20 wks after DMM, mice are sacrificed, and OA assessed histologically by a blinded examiner scoring cartilage degeneration through Safranin-O stained sections, and scoring synovitis and osteophytes through H&E stained sections.
Treatment with pharmacologic agents. Beginning 24 hrs after DMM, mice (n=10 per experimental arm) are treated by injection or oral gavage for 12 wks with either vehicle, or one of the agents as detailed in Table 1.
Histologic analysis. Histologic analysis of mouse stifle joints occurs 20-wks after surgery. Cartilage degeneration is assessed through scoring of Safranin-O stained sections and synovitis and osteophyte formation assessed through scoring of H&E stained sections. Significance was assessed by unpaired 2-tailed Mann-Whitney U test, with *P<0.05, **P<0.01, ***P<0.001.
After 12 weeks of treatment, mice were sacrificed, and the stifle joints harvested for histologic analysis, and safranin-O stained joint tissue sections were scored by a blinded examiner for the degree of cartilage degeneration. […] Significance was assessed by unpaired 2-tailed Mann-Whitney U test, with *P<0.05, **P<0.01, ***P<0.001, N.S. non-significant.
After 12 weeks of treatment, mice were sacrificed, and the stifle joints harvested for histologic analysis, and safranin-O stained joint tissue sections were scored by a blinded examiner for the degree of cartilage degeneration. […] Significance was assessed by unpaired 2-tailed Mann-WhitneyU test, with *P<0.05, **P<0.01, ***P<0.001.
Mice were then sacrificed, and the stifle joints harvested for histologic analysis. (A) Safranin-O stained joint tissue sections were scored by a blinded examiner for the degree of cartilage degeneration. (B) Representative safranin-O stained sections from each group are presented. […] Significance was assessed by unpaired 2-tailed Mann-Whitney U test, with *P<0.05, **P<0.01, ***P<0.001.

[2] = system: human OA synovial tissue organoid; test: Human OA synovial tissue organoid stimulation assay (qPCR); format: cell-based; conditions: rupatadine 1 μM, fenofibrate 1 μM or both; 24 hr with human OA synovial fluid; vs vehicle
Protocol: Human OA synovium was obtained at the time of arthroplasty and cultured overnight in tissue culture medium with human OA synovial fluid.
The arthroplasty synovium was then washed with media, cut into approximately 2 mm pieces, and individual organoid pieces further stimulated for 24 hr with human OA synovial fluid in the presence of the test small molecule compounds and combinations including: vehicle control; rupatadine 1 μM; fenofibrate 1 μM; or rupatadine 1 μM+fenofibrate 1 μM. The organoids were then harvested, total RNA extracted, reverse transcription performed, followed by qPCR to quantitate levels of RNA encoding the inflammatory lipid PAF biosynthesis enzyme (Ipcat2) gene expression as well as PAF receptor (ptafr) gene expression.

Structure (SMILES): Cc1ccc(C)c(OCCCC(C)(C)C(=O)O)c1 [Gemfibrozil]
- Bioavailability [1]: 100%

Structure (SMILES): O=C1[C@H](CC[C@H](O)c2ccc(F)cc2)[C@@H](c2ccc(O)cc2)N1c1ccc(F)cc1 [Ezetimibe]
- Bioavailability [1]: variable

Structure (SMILES): CC(C)c1c(C(=O)Nc2ccccc2)c(-c2ccccc2)c(-c2ccc(F)cc2)n1CC[C@@H](O)C[C@@H](O)CC(=O)O [Atorvastatin]
- prevention of OA (quantification of cartilage degeneration 20 wks post-DMM) (DMM mouse model for OA; C57BL/6J wild-type mice, atorvastatin 0.5 mg/kg for 12 wks following DMM vs vehicle, p=0.0513): does not prevent OA
- development / severity of OA following DMM (DMM mouse model for OA; mice, dose not given at place): failure of atorvastatin to prevent OA

- PAF receptor (ptafr) gene expression [2]: decreased
- inflammatory lipid PAF biosynthesis enzyme (Ipcat2) gene expression [2]: decreased
Structure (SMILES): Cc1cncc(CN2CCC(=C3c4ccc(Cl)cc4CCc4cccnc43)CC2)c1 [Rupatadine]
- severity / development of OA (cartilage degeneration scores) (DMM mouse model for OA; C57Bl/6 mice, oral gavage from 1 week after DMM for 3 months, rupatadine 20 μg, fenofibrate 40 μg, or both): decreased the severity of OA
- severity of OA-related cartilage degeneration following DMM (DMM mouse model for OA; WT mice, vs vehicle (combination also vs either drug alone), Example 1, dose not given at place): significantly less severe OA-related cartilage degeneration

Structure (SMILES): CCc1ccc(CCOc2ccc(CC3SC(=O)NC3=O)cc2)nc1 (stereo not shown) [Pioglitazone]
- Bioavailability [1]: 83%

Structure (SMILES): CC(C)(Oc1ccc(CCNC(=O)c2ccc(Cl)cc2)cc1)C(=O)O [Bezafibrate]
- Bioavailability [1]: 100%
